Reference: ChEMBL document CHEMBL1201862, “PubChem BioAssay data set” (2004)
Blank lines part the entries; values can stand above or below the compound they belong to. Calls of active or inactive are those of the source.

Experiments:
[1] = biological target: T1, Voltage-gated N-type calcium channel alpha-1B subunit/Amyloid beta A4 precursor protein-binding family A member 1 (Homo sapiens, UniProt Q00975+Q02410); assay type: protein assay
[2] = biological target: T1, Voltage-gated N-type calcium channel alpha-1B subunit/Amyloid beta A4 precursor protein-binding family A member 1; assay type: protein assay; remark: listed apart in the source
[3] = biological target: Induced myeloid leukemia cell differentiation protein Mcl-1 (Homo sapiens, UniProt Q07820); assay type: functional
[4] = biological target: DNA dC->dU-editing enzyme APOBEC-3A (Homo sapiens, UniProt P31941); assay: A3A deaminase inhibition for selectivity – biochemical, dose response (AID 504722); assay type: functional
Sequence of DNA dC->dU-editing enzyme APOBEC-3A (P31941 whole entry): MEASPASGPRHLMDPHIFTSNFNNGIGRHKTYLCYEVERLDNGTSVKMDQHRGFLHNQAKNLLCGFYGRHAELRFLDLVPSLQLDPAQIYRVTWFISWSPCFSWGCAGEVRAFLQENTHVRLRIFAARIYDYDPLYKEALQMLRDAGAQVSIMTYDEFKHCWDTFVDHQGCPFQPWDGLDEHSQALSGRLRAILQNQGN

[5] = biological target: DNA dC->dU-editing enzyme APOBEC-3G (Homo sapiens, UniProt Q9HC16); assay: Dose Response confirmation of small molecule APOBEC3G DNA Deaminase Inhibitors via a fluorescence-based single-stranded DNA deaminase assay. [Related pubchem assays (depositor defined):AID493012, AID493028]; assay type: functional
Sequence of DNA dC->dU-editing enzyme APOBEC-3G (Q9HC16 whole entry): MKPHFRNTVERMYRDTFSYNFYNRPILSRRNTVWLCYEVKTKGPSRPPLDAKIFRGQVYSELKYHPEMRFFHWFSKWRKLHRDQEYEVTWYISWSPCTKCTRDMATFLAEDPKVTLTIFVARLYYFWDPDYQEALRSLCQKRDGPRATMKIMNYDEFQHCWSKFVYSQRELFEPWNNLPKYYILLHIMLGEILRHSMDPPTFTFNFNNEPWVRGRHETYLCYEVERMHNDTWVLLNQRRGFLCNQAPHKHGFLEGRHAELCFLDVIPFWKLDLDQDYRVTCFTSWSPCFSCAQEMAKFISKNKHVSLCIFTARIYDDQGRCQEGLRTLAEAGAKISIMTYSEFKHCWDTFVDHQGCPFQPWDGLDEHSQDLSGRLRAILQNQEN

[6] = biological target: T2, Apoptotic protease-activating factor 1 (Homo sapiens, UniProt O14727); assay: activation of Apaf-1 mediated apoptosis – fluorescent, uHTS hits, dose response (AID 588554); assay type: functional
T2 sequence (O14727 whole entry): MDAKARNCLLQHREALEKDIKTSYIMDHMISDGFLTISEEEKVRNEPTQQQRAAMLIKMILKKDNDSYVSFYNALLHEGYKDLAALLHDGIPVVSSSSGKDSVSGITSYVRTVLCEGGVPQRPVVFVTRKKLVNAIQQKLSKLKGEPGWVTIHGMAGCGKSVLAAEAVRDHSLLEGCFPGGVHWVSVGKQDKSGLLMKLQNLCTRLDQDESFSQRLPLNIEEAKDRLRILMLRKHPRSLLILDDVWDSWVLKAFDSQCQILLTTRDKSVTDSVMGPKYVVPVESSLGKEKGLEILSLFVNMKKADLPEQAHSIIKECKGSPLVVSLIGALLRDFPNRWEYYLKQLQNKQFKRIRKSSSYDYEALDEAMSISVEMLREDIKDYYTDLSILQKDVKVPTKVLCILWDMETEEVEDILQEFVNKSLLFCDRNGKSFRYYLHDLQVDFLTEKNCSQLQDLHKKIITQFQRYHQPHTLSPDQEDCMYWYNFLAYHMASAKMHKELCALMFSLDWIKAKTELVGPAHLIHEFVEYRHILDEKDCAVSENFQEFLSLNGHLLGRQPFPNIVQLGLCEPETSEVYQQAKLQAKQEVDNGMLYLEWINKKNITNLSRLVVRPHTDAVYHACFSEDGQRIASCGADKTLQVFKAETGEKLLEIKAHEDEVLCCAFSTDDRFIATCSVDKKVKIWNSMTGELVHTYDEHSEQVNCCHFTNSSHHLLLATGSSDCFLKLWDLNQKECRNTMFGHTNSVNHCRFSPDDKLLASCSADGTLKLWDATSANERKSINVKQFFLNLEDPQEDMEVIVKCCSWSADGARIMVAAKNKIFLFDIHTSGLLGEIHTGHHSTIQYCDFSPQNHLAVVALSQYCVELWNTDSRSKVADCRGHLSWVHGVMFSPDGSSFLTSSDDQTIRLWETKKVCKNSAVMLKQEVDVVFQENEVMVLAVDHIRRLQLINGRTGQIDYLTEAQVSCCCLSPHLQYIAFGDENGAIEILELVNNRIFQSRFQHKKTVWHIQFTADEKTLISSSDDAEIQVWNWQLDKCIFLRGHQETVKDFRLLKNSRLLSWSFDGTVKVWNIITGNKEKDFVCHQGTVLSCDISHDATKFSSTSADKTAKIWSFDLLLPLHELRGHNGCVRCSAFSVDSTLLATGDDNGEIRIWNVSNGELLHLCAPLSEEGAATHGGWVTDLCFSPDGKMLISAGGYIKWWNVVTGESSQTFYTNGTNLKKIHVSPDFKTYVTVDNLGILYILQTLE

[7] = biological target: DNA (cytosine-5)-methyltransferase 1 (Homo sapiens, UniProt P26358); assay: inhibition of DNA methylation by DNMT1 – biochemical, fluorescent molecular beacon, confirmation (AID 602386); assay type: functional
[8] = biological target: T3, Small ubiquitin-related modifier 1 (Homo sapiens, UniProt P63165); assay: SUMO1 protein interaction blockers, potency – biochemical, fluorescence polarization, uHTS hits, dose response (AID 624382); assay type: functional; conditions: read-out: IC50_Mean
T3 sequence (P63165 whole entry): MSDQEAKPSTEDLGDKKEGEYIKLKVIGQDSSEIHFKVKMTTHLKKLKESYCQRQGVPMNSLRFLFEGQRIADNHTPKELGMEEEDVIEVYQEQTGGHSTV

[9] = biological target: T3, Small ubiquitin-related modifier 1; assay: SUMO1 protein-protein binding blockers, potency – biochemical, FRET, dose response (AID 624383); assay type: functional; conditions: read-out: IC50_Mean
[10] = biological target: Sphingosine 1-phosphate receptor 5 (Homo sapiens, UniProt Q9H228); assay: Late stage counterscreen assay for S1P4 antagonists: Fluorescence dose response cell-based screening assay for antagonists of the Sphingosine 1-Phosphate Receptor 5 (S1P5). [Related pubchem assays (depositor defined):AID1510, AID1524, AID1692, AID1853, AID2332, AID489009, AID489017]; assay type: functional
[11] = biological target: Sphingosine 1-phosphate receptor 3 (Homo sapiens, UniProt Q99500); assay: Late stage counterscreen assay for S1P4 antagonists: Fluorescence dose response cell-based screening assay for antagonists of the Sphingosine 1-Phosphate Receptor 3 (S1P3). [Related pubchem assays (depositor defined):AID1510, AID1524, AID1692, AID1853, AID2332, AID489009, AID489017]; assay type: functional
[12] = biological target: Sphingosine 1-phosphate receptor 1 (Homo sapiens, UniProt P21453); assay: Late stage counterscreen assay for S1P4 antagonists: Fluorescence dose response cell-based screening assay for antagonists of the Sphingosine 1-Phosphate Receptor 1 (S1P1). [Related pubchem assays (depositor defined):AID1510, AID1524, AID1692, AID1853, AID2332, AID489009, AID489017]; assay type: functional
Sequence of Sphingosine 1-phosphate receptor 1 (P21453 whole entry): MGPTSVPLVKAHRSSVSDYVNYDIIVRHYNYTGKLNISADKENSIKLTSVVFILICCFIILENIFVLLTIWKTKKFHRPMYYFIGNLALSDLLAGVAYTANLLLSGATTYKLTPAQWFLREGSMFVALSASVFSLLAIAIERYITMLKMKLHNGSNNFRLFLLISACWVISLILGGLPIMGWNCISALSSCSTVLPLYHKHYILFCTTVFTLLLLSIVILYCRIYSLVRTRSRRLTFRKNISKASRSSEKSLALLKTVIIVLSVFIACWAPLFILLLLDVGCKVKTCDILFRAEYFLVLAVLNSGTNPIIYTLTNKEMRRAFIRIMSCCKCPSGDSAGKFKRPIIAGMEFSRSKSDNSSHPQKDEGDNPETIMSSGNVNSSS

[13] = biological target: Sphingosine 1-phosphate receptor 2 (Homo sapiens, UniProt O95136); assay: Late stage counterscreen assay for S1P4 antagonists: Fluorescence dose response cell-based screening assay for antagonists of the Sphingosine 1-Phosphate Receptor 2 (S1P2). [Related pubchem assays (depositor defined):AID1510, AID1524, AID1692, AID1853, AID2332, AID489009, AID489017]; assay type: functional
Prothrombin = Prothrombin (Homo sapiens, UniProt P00734); assay: Thrombin 1536 HTS Dose Response Confirmation. [Related pubchem assays: 1046 (Thrombin 1536 HTS; hits were confirmed in this assay)]; assay type: functional
[14] = biological target: T4, Calpain-2 catalytic subunit (Sus scrofa, UniProt P43367); assay: m-calpain protease blockers, concentration series – biochemical, fluorogenic peptide substrate, dose response (AID 1420); assay type: functional
T4 sequence (P43367 whole entry): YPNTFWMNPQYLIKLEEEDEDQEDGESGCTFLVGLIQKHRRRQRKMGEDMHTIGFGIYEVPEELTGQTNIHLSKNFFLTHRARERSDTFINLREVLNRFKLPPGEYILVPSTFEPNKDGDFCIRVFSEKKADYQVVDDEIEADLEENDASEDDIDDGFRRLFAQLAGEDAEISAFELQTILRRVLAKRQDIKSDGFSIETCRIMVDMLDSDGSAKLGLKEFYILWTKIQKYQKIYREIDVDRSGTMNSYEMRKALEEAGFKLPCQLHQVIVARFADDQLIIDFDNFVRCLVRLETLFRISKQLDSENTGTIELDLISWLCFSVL

[15] = biological target: Intestinal-type alkaline phosphatase (Mus musculus, UniProt P24822); assay: PubChem AID 488785; assay type: functional
[16] = biological target: T5, Alkaline phosphatase, tissue-nonspecific isozyme (Homo sapiens, UniProt P05186); assay: TNAP enzyme inhibition by screening hits, dose response, selectivity assay for mouse IAP inhibitor project, biochemical, human TNAP, uHTS hits (AID 488906); assay type: functional
T5 sequence (P05186 whole entry): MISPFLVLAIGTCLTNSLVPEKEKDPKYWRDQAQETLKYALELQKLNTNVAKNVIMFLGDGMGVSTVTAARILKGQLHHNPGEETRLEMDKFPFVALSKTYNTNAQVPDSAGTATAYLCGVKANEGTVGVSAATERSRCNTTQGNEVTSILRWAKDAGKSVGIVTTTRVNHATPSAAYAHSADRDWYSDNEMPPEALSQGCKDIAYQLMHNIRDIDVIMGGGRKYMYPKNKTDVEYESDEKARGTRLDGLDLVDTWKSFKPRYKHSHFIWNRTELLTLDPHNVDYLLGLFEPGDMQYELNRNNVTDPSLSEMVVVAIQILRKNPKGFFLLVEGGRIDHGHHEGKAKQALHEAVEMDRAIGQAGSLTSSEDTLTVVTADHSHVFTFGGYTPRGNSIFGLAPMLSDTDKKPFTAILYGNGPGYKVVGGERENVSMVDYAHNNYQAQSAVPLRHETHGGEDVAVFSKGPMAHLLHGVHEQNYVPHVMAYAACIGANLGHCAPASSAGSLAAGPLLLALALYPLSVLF

[17] = biological target: Intestinal-type alkaline phosphatase (Homo sapiens, UniProt P09923); assay: inhibition of human intestinal alkaline phosphatase – biochemical, dose response (AID 488876); assay type: functional
Sequence of Intestinal-type alkaline phosphatase (Homo sapiens, UniProt P09923) (P09923 whole entry): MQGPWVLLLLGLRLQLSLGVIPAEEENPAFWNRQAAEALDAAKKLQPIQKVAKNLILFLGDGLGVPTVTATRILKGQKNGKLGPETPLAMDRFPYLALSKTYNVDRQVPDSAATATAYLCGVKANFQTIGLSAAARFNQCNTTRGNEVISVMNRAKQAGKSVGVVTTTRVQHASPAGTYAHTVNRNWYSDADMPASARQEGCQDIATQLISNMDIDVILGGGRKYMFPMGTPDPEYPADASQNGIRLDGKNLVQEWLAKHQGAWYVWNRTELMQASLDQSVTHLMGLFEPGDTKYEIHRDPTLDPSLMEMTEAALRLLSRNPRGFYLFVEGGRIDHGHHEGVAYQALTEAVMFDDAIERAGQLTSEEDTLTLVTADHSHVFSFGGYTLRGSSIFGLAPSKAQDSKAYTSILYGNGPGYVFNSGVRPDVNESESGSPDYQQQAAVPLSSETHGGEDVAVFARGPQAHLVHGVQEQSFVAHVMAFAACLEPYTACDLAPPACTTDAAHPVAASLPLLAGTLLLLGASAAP

T1 sequence (Q00975 whole entry): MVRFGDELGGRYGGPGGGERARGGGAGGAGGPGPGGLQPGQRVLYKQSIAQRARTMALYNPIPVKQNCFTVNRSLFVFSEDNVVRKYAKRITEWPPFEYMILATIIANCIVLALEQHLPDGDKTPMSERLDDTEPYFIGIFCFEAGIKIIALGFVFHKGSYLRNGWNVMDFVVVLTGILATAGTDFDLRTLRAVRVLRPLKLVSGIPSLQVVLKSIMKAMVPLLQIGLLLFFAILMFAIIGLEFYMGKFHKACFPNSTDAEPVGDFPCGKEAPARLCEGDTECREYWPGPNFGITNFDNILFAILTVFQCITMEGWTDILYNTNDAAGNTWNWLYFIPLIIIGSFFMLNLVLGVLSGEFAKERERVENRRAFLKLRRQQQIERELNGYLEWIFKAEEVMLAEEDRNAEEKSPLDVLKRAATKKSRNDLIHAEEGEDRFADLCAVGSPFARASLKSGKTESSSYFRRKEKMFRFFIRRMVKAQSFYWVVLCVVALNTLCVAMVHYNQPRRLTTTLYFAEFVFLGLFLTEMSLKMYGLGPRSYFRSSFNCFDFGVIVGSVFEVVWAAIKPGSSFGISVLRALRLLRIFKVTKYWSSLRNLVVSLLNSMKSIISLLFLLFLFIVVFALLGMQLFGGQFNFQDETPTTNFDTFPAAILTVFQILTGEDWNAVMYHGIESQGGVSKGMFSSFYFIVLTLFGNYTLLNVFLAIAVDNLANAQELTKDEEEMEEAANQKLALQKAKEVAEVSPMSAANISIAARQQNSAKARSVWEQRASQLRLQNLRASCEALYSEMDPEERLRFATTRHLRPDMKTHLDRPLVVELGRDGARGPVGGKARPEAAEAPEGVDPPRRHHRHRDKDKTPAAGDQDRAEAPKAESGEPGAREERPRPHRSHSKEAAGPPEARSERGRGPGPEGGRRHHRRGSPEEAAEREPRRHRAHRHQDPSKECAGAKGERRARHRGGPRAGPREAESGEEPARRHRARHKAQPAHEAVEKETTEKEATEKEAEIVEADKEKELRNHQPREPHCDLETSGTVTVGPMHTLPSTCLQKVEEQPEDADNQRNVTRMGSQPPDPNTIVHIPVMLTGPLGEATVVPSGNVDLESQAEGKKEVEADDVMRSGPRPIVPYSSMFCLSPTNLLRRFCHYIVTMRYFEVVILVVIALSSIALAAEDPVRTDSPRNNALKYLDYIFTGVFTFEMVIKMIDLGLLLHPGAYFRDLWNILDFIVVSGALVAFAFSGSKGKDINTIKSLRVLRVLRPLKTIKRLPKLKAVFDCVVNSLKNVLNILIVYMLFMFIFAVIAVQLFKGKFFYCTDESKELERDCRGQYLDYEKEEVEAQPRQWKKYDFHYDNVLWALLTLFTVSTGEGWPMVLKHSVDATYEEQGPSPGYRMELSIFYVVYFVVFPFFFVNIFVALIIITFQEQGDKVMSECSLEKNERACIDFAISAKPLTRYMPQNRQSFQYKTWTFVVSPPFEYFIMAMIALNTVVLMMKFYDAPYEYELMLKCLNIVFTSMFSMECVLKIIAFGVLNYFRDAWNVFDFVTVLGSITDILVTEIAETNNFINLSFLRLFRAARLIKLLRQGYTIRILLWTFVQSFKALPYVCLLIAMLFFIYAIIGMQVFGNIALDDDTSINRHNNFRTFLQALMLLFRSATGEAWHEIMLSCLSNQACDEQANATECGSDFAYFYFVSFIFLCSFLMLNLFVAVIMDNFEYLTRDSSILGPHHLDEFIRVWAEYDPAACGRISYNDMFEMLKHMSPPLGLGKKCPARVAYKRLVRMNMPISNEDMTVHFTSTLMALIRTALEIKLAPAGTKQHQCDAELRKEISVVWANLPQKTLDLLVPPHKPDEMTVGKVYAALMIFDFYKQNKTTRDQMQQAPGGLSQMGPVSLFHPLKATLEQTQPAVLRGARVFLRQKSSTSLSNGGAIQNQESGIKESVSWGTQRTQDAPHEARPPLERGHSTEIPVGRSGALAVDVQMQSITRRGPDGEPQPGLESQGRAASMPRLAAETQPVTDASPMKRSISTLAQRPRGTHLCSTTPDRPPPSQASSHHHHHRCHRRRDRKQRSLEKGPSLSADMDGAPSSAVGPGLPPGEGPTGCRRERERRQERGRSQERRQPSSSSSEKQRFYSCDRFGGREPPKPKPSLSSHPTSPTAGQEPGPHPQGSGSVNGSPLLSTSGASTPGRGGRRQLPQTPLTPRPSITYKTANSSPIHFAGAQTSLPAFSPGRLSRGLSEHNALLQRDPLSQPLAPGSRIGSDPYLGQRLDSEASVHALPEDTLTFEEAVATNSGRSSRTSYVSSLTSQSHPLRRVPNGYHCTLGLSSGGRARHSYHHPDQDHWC
T1 sequence (Q02410 whole entry): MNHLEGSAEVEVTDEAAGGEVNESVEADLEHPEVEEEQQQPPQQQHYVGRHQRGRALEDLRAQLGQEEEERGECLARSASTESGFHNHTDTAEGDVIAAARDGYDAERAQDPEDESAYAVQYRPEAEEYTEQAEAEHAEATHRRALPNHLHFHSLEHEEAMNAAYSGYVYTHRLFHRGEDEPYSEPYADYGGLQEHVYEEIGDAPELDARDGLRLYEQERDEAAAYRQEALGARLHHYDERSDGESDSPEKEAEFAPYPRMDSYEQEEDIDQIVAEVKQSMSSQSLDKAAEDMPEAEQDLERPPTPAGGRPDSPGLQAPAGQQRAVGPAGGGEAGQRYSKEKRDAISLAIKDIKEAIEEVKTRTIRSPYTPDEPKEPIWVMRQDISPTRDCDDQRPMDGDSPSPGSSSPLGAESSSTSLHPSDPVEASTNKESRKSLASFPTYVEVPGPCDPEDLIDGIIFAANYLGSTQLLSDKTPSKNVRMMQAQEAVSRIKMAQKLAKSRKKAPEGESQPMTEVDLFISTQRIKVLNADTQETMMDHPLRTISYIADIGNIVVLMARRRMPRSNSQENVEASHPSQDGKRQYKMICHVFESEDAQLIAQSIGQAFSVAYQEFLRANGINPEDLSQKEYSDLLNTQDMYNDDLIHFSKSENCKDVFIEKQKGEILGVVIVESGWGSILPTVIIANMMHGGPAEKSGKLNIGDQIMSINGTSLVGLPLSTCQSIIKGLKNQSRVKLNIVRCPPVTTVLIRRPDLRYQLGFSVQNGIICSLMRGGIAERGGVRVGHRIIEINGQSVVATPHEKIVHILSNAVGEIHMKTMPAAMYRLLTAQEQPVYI

Structure (SMILES): C=C(C)C(=O)Nc1cccc(C2=NOC3(C2)C[C@@H](C(N)=O)N(C(=O)/C=C/C=C/C)C3)c1 (stereo partly drawn)
IC50 [1]: 10 µM (active)
IC50 [2]: 34.3 µM (active)
IC50 [3]: 2.3 µM (active)
IC50 [4]: > 100 µM (inactive)
IC50 [5]: 3.41 µM (active)
EC50 [6]: 1.17 µM (active)
IC50 [7]: 3.25 µM (active)
IC50 [8]: > 66.6 µM (inactive)
IC50 [9]: 1.72 µM (active)

IC50 [10]: > 25 µM (inactive)
IC50 [11]: > 25 µM (inactive)
IC50 [12]: > 25 µM (inactive)
IC50 [13]: > 25 µM (inactive)
Structure (SMILES): Cc1ccc(C)c(NC(=O)c2ccc(-c3cc(Cl)ccc3Cl)o2)c1

IC50 (Prothrombin): > 50 µM (not active)
IC50 [14]: 3.72 µM (not active)
IC50 [15]: 5.12 µM (active)
IC50 [16]: 92.7 µM (active)
IC50 [17]: > 100 µM (inactive)
Structure (SMILES): COc1cccc(NC(S)=NCCC(c2ccccc2)c2ccccc2)c1
